Test results published in patent US8633186B2, “Modulation of chemosensory receptors and ligands associated therewith” (Senomyx Inc., priority 2007, dated 2014).
Blank lines part the entries; values can stand above or below the molecule they belong to.

Legend:
[1] = tested on: human panelists (which sample is sweeter); assay: Sweet flavor and sweet flavor enhancement, human panelists, paired comparison test; type: in vivo
Method: Test samples containing experimental compounds are presented in pairs to the panelist and they are asked to determine which of the sample is sweeter. A group of 10-16 or more panelists participated in each test. Subjects refrained from eating or drinking (except water) for at least 1 hour prior to the test. Subjects rinsed with water several times to clean the mouth.
All samples are prepared with ethanol to ensure dispersion of the compound in solution. This includes samples without compound; all solutions are balanced for 0.1% ethanol.
Samples are also prepared with low sodium buffer (pH 7.1) in place of water. Buffer contains 0.952 g of KCl, 5.444 g of Na2HPO4, and 0.952 g of KH2PO4 in 40 L of DIUF water. Sample volumes are usually 20 ml.
In one paired comparison test, the panelist is presented with two different samples and asked to identify the sample which is sweeter. The samples within a paired comparison test are presented in a randomized, counterbalanced order. Panelists have up to a 1 minute delay between taste tests to clear the mouth of any tastes.
Binomial probability tables are used to determine the probability of the correct number of responses occurring for each test at alpha=0.05.

[2] = tested on: human panelists (perceived sweetness intensity); assay: Sweet flavor and sweet flavor enhancement, human panelists, scaling test; type: in vivo; settings: for Average sweetness score (line scale 0 to 15): Table 29; for Average Sweetness: Table 36, n = 13
Excerpt: Test samples containing experimental compounds were compared to a dose-response curve for perceived sweetness intensity of sweeteners (such as, for example, sucralose, sucrose, fructose and other sweeteners) concentrations to determine equivalent sweetness intensity.
A group of eight or more panelists tasted solutions including sweeteners at various concentrations, as well as the experimental compound both with and without added sweetener. Panelists then rated sweetness intensity of all samples on a structured horizontal line scale, anchored from 0 to 15, where 0 equals no sweetness and 15 equals equivalent sweetness to a 15% sucrose sample. Scores for sweetness intensity were averaged across panelists. Then using the average scores and/or equation of the line for the sweetener dose-response curve, equivalent sweetness concentrations were determined for the samples containing experimental compounds.
Subjects had been previously familiarized with the key attribute taste and were trained to use the 0 to 15 point line scale. Subjects refrained from eating or drinking (except water) for at least 1 hour prior to the test. Subjects ate a cracker and rinsed with water several times to clean the mouth.
Sweetener solutions are provided at a wide range of concentrations such as 100 ppm, 200 ppm, 300 ppm, 400 ppm, and 500 ppm for sucralose, or between 0% and 12% for sucrose or fructose, in order to create a dose-response curve. Samples containing experimental compound were prepared both alone and in a 100 ppm sucralose solution or a 6% sucrose or fructose solution. All samples were made up in low sodium buffer pH 7.1. In order to aid dispersion, solutions can be made up in 0.1% ethanol.
The solutions were dispensed in 20 ml volumes into 1 oz. sample cups and served to the subjects at room temperature. All samples were presented in randomized counterbalanced order to reduce response bias. Further, two sessions of testing may be used to check panel precision.
Subjects tasted each sample individually and rate sweetness intensity on the line scale prior to tasting the next sample. All samples were expectorated. Subjects may retaste the samples but can only use the volume of sample given. Subjects must rinse with water between samples. Eating an unsalted cracker between samples may be required depending on the samples tasted.
The scores for each sample were averaged across subjects and standard error was calculated. The dose-response curve was plotted graphically, and this may be used to ensure the panel is rating accurately; i.e., increasing the concentration of sucralose should correspond to increased average scores for sweetness. A 2-way ANOVA (factors being samples and panelists) and multiple comparison tests (such as Tukey's Honestly Significant Difference test) can be used to determine differences among samples and/or panelists. A 3-way ANOVA, with sessions as the third factor, can be used to determine if there is any difference in the ratings between sessions.

[3] = Table 35, 6% Fructose alone vs 6% Fructose + 100 μM C20, of n = 19

melting point: 229 to 230 °C
SMILES: CCCOc1cccc2c1C(N)=NS(=O)(=O)N2 [Example 111, 4-Amino-5-(propyloxy)-1H-benzo[c][1,2,6]thiadiazine-2,2-dioxide]

melting point: 221 °C
SMILES: O=C(NC1CCCCC1)c1c(O)c2ccccc2[nH]c1=O [Example 73, N-cyclohexyl-4-hydroxy-2-oxo-1,2-dihydroquinoline-3-carboxamide]

melting point: 235 to 236 °C
SMILES: CC(C)(COc1cccc2c1C(N)=NS(=O)(=O)N2)NC(=O)c1ccccc1 [Example 216, N-(1-(4-amino-2,2-dioxide-1H-benzo[c][,6]thiadiazin-5-yloxy)-2′-methylpropan-2′-yl)benzamide]

melting point: > 250 °C
SMILES: N#Cc1c(Cl)c2ccccc2[nH]c1=O [Example 72, 4-chloro-2-oxo-1,2-dihydroquinoline-3-carbonitrile]

melting point: > 250 °C
SMILES: CC(C)=Cc1c(F)ccc2c1C(N)=NS(=O)(=O)N2 [Example 134, 4-Amino-6-fluoro-5-(2-methylprop-1-enyl)-1H-benzo[c][1,2,3]thiadiazine-2,2-dioxide]

melting point: > 260 °C
SMILES: Nc1nc(=O)[nH]c2sc3c(c12)CCOC3 [Example 146, 4-Amino-5,6-(5′,7′-dihydro-4′H-[2′,3′-c]pyrano)thieno[2,3-d]-pyrimidine-2(1H)-one]

melting point: 225 to 226 °C
SMILES: CCCNC(=O)C(C)(C)COc1cccc2c1C(N)=NS(=O)(=O)N2 [Example 215, 3-(4-Amino-2,2-dioxide-1H-benzo[c][1,2,6]thiadiazin-5-yloxy)-2′,2′-dimethyl-N-propylpropanamide]

melting point: > 250 °C
SMILES: N#Cc1c(N)c2ccccc2[nH]c1=O [Example 71, 4-Amino-2-oxo-1,2-dihydroquinoline-3-carbonitrile]

Second part, the molecule before the results:

SMILES: Nc1cc(=O)[nH]c2ccccc12 [Example 65, 4-Aminoquinolin-2(1H)-one]
melting point: > 250 °C

SMILES: Nc1nc(=O)[nH]c2sc3c(c12)CCOC3 [Compound 568]
Sample selected as more sweet by panelists, Total ([1]; Table 33, 6% Fructose + 100 μM compound vs 6% Fructose, of n = 26 (13 panelists × 2 reps)): 20

SMILES: Cc1sc2[nH]c(=S)nc(N)c2c1C [Example 1, 4-Amino-5,6-dimethylthieno[2,3-d]pyrimidine-2(1H)-thione]
melting point: > 260 °C

SMILES: NC1=NS(=O)(=O)Nc2cccc(OC3CCCC3)c21 [Example 169, 4-Amino-5-(cyclopentoxy)-1H-benzo[c][1,2,6]thiadiazine-2,2-dioxide]
melting point: > 260 °C

SMILES: Cc1cccc2[nH]c(=S)nc(N)c12 [Example 3, 4-Amino-5-methylquinazoline-2(1H)-thione]
melting point: > 250 °C

SMILES: O=C(CO)[C@@H](O)[C@H](O)[C@H](O)CO [Fructose, fructose]
Sample selected as more sweet by panelists, Total ([1]; Table 33, 6% Fructose alone vs 6% Fructose + 100 μM compound, of n = 26): 6 | Sample selected as more sweet by panelists, Total ([1]; Table 34, 6% Fructose alone vs 6% Fructose + 100 μM C19, of n = 24): 6 | Sample selected as more sweet by panelists, Test 1 [1, 3]: 0 | Sample selected as more sweet by panelists, Total [1, 3]: 0 | Sample selected as more sweet by panelists, Test 1 ([1]; Table 37, 6% Fructose alone vs 6% fructose + 25 μM C21, of n = 25): 5 | Sample selected as more sweet by panelists, Test 1 ([1]; Table 38, 7% Fructose alone vs 6% fructose + 25 μM C21, of n = 25): 13 | Average sweetness score (line scale 0 to 15) ([2]; 6% fructose alone): 6.9 | Average sweetness score (line scale 0 to 15) ([2]; 8% fructose alone): 8.6 | Average sweetness score (line scale 0 to 15) ([2]; 9% fructose alone): 9.3 | Average sweetness score (line scale 0 to 15) ([2]; 10% fructose alone): 9.5 | Average Sweetness ([2]; 2% Fructose alone): 2.3 | Average Sweetness ([2]; 4% Fructose alone): 4.2 | Average Sweetness ([2]; 6% Fructose alone): 5.9

SMILES: COC(=O)c1c(N)c2ccccc2[nH]c1=O [Example 68, Methyl 4-amino-2-oxo-1,2-dihydroquinoline-3-carboxylate]
melting point: 236 °C
